Values belong to the molecule of their own block, whether it stands above or below them.
Legend:
Carbonic anhydrase 2 = Carbonic anhydrase 2 (Homo sapiens, UniProt P00918); assay: Binding affinity to human CA2 assessed as inhibition constant incubated for 10 mins by phenol red dye based stopped flow CO2 hydration assay
Carbonic anhydrase 1 = Carbonic anhydrase 1 (Homo sapiens, UniProt P00915); assay: Binding affinity to human CA1 assessed as inhibition constant incubated for 10 mins by phenol red dye based stopped flow CO2 hydration assay
Carbonic anhydrase 1, sequence (P00915 whole entry): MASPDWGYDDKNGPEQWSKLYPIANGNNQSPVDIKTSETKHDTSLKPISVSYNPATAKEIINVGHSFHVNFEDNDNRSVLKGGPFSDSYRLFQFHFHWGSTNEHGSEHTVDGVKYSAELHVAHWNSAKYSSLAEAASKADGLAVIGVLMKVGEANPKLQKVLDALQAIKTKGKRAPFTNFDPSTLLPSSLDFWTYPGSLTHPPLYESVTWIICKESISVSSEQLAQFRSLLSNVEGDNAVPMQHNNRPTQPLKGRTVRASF

A549 = assay: Antiproliferative activity against human A549 cells incubated 24 hrs by MTT assay; assay type: functional, cell-based; conditions: A549, 24 h
MDA-MB-231 = assay: Antiproliferative activity against human MDA-MB-231 cells incubated 24 hrs by MTT assay; assay type: functional, cell-based; conditions: MDA-MB-231, 24 h
[1] = Antiproliferative activity against human Lu1 cells assessed as inhibition of cell growth after 72 hrs by MTT assay; assay type: functional, cell-based; conditions: Lu1, 72 h
SK-MEL-2 = assay: Antiproliferative activity against human SK-MEL-2 cells assessed as inhibition of cell growth after 72 hrs by MTT assay; assay type: functional, cell-based; conditions: SK-MEL-2, 72 h
HepG2 [2] = assay: Antiproliferative activity against human HepG2 cells assessed as inhibition of cell growth after 72 hrs by MTT assay; assay type: functional, cell-based; conditions: HepG2, 72 h
MCF7 = assay: Antiproliferative activity against human MCF7 cells assessed as inhibition of cell growth after 72 hrs by MTT assay; assay type: functional, cell-based; conditions: MCF7, 72 h
HeLa [3] = assay: Antiproliferative activity against human HeLa cells assessed as inhibition of cell growth after 72 hrs by MTT assay; assay type: functional, cell-based
HepG2 [4] = assay: Cytotoxicity against human HepG2 cells; assay type: functional, cell-based
[5] = Cytotoxicity against human Lu1 cells; assay type: functional, cell-based
HeLa [6] = assay: Cytotoxicity against human HeLa cells; assay type: functional, cell-based

Structure (SMILES): COc1ccc(C(=O)Nc2ccc3c(c2)C=CS(=O)(=O)O3)cc1S(=O)(=O)N1C[C@@H](C)O[C@@H](C)C1
Ki (Carbonic anhydrase 2): 99.4 nM | Ki (Carbonic anhydrase 1): 99.4 nM

Structure (SMILES): CC(=O)OC[C@H]1O[C@@H](NC(=S)N/N=C(\C)c2c(C)c3ccccc3oc2=O)[C@H](OC(C)=O)[C@@H](OC(C)=O)[C@H]1OC(C)=O
IC50 [1]: 1280 nM | IC50 (SK-MEL-2): 1280 nM | IC50 (HepG2 [2]): 1280 nM | IC50 (MCF7): 1280 nM | IC50 (HeLa [3]): 1280 nM

Structure (SMILES): CC(=O)OC[C@H]1O[C@@H](n2c(-c3ccccc3)cs/c2=N\N=C\c2cc(=O)oc3cc(C)ccc23)[C@H](OC(C)=O)[C@@H](OC(C)=O)[C@@H]1OC(C)=O
IC50 (HepG2 [4]): 1180 nM | IC50 [5]: 1180 nM | IC50 (HeLa [6]): 1180 nM

Structure (SMILES): CC(=O)OC[C@H]1O[C@@H](NC(=S)N/N=C(\C)c2cc3cc(Br)ccc3oc2=O)[C@H](OC(C)=O)[C@@H](OC(C)=O)[C@H]1OC(C)=O
IC50 [1]: 1280 nM | IC50 (SK-MEL-2): 1280 nM | IC50 (HepG2 [2]): 1280 nM | IC50 (MCF7): 1280 nM | IC50 (HeLa [3]): 1280 nM

Structure (SMILES): C[C@@H]1CN(S(=O)(=O)c2cccc(C(=O)Nc3ccc4c(c3)C=CS(=O)(=O)O4)c2)C[C@H](C)O1
Ki (Carbonic anhydrase 2): 99.4 nM | Ki (Carbonic anhydrase 1): 99.4 nM

Structure (SMILES): CC(=O)OC[C@H]1O[C@@H](NC(=S)N/N=C(\C)c2c(O)c3cccc(C)c3oc2=O)[C@H](OC(C)=O)[C@@H](OC(C)=O)[C@H]1OC(C)=O
IC50 [1]: 1280 nM | IC50 (SK-MEL-2): 1280 nM | IC50 (HepG2 [2]): 1280 nM | IC50 (MCF7): 1280 nM | IC50 (HeLa [3]): 1280 nM

Structure (SMILES): Cc1ccc(C(=O)Nc2ccc3c(c2)C=CS(=O)(=O)O3)cc1S(=O)(=O)N1CCCC1
Ki (Carbonic anhydrase 2): 99.4 nM | Ki (Carbonic anhydrase 1): 99.4 nM

Structure (SMILES): C[C@@H]1CN(S(=O)(=O)c2cc(C(=O)Nc3ccc4c(c3)C=CS(=O)(=O)O4)ccc2Cl)C[C@H](C)S1
Ki (Carbonic anhydrase 2): 99.4 nM | Ki (Carbonic anhydrase 1): 99.4 nM

Structure (SMILES): CC(=O)OC[C@H]1O[C@@H](NC(=S)N/N=C(\C)c2cc3ccc(C)cc3oc2=O)[C@H](OC(C)=O)[C@@H](OC(C)=O)[C@H]1OC(C)=O
IC50 [1]: 1280 nM | IC50 (SK-MEL-2): 1280 nM | IC50 (HepG2 [2]): 1280 nM | IC50 (MCF7): 1280 nM | IC50 (HeLa [3]): 1280 nM

Structure (SMILES): CC(=O)OC[C@H]1O[C@@H](n2c(-c3ccccc3)cs/c2=N\N=C(/C)c2cc3ccccc3oc2=O)[C@H](OC(C)=O)[C@@H](OC(C)=O)[C@@H]1OC(C)=O
IC50 (HepG2 [4]): 1180 nM | IC50 [5]: 1180 nM | IC50 (HeLa [6]): 1180 nM

Structure (SMILES): CC(=O)OC[C@H]1O[C@@H](NC(=S)N/N=C(\C)c2c(C)c3ccc(O)cc3oc2=O)[C@H](OC(C)=O)[C@@H](OC(C)=O)[C@H]1OC(C)=O
IC50 [1]: 1280 nM | IC50 (SK-MEL-2): 1280 nM | IC50 (HepG2 [2]): 1280 nM | IC50 (MCF7): 1280 nM | IC50 (HeLa [3]): 1280 nM

Further lines, with some results ahead:

IC50 (A549): < 10000 nM | IC50 (MDA-MB-231): < 10000 nM
Structure (SMILES): O=c1oc2ccccc2cc1-c1cc(-c2cccc(Br)c2)nc(Cc2ccc(F)cc2)n1

Ki (Carbonic anhydrase 2): 99.4 nM | Ki (Carbonic anhydrase 1): 99.4 nM
Structure (SMILES): O=C(Nc1ccc2c(c1)C=CS(=O)(=O)O2)c1ccc(F)c(S(=O)(=O)N2CCCC2)c1

IC50 (A549): < 10000 nM | IC50 (MDA-MB-231): < 10000 nM
Structure (SMILES): COc1ccccc1-c1cc(-c2cc3ccccc3oc2=O)nc(Cc2ccc(F)cc2)n1

Ki (Carbonic anhydrase 2): 99.4 nM | Ki (Carbonic anhydrase 1): 99.4 nM
Structure (SMILES): O=C(Nc1ccc2c(c1)C=CS(=O)(=O)O2)c1cccc(S(=O)(=O)N2CCCC2)c1

IC50 (A549): < 10000 nM | IC50 (MDA-MB-231): < 10000 nM
Structure (SMILES): Cc1ccc(-c2cc(-c3cc4ccccc4oc3=O)nc(Cc3ccc(F)cc3)n2)cc1

IC50 (A549): < 10000 nM | IC50 (MDA-MB-231): < 10000 nM
Structure (SMILES): O=c1oc2ccccc2cc1-c1cc(-c2ccc(Br)cc2)nc(Cc2ccc(F)cc2)n1

IC50 (A549): < 10000 nM | IC50 (MDA-MB-231): < 10000 nM
Structure (SMILES): O=c1oc2ccccc2cc1-c1cc(-c2ccccc2Br)nc(Cc2ccc(F)cc2)n1

Ki (Carbonic anhydrase 2): 99.4 nM | Ki (Carbonic anhydrase 1): 99.4 nM
Structure (SMILES): C[C@@H]1CN(S(=O)(=O)c2cc(C(=O)Nc3ccc4c(c3)C=CS(=O)(=O)O4)ccc2F)C[C@H](C)O1

IC50 (A549): < 10000 nM | IC50 (MDA-MB-231): < 10000 nM
Structure (SMILES): COc1cccc(-c2cc(-c3cc4ccccc4oc3=O)nc(Cc3ccc(F)cc3)n2)c1

IC50 (A549): < 10000 nM | IC50 (MDA-MB-231): < 10000 nM
Structure (SMILES): COc1ccc(-c2cc(-c3cc4ccccc4oc3=O)nc(Cc3ccc(F)cc3)n2)cc1

IC50 (A549): < 10000 nM | IC50 (MDA-MB-231): < 10000 nM
Structure (SMILES): O=c1oc2ccccc2cc1-c1cc(-c2cccc(Cl)c2)nc(Cc2ccc(F)cc2)n1

IC50 (SK-MEL-2): 1280 nM | IC50 (HepG2 [2]): 1280 nM | IC50 (MCF7): 1280 nM | IC50 (HeLa [3]): 1280 nM
Structure (SMILES): CC(=O)OC[C@H]1O[C@@H](NC(=S)N/N=C(\C)c2cc3ccccc3oc2=O)[C@H](OC(C)=O)[C@@H](OC(C)=O)[C@H]1OC(C)=O
IC50 [1]: 1280 nM

IC50 (A549): < 10000 nM | IC50 (MDA-MB-231): < 10000 nM
Structure (SMILES): Cc1ccccc1-c1cc(-c2cc3ccccc3oc2=O)nc(Cc2ccc(F)cc2)n1

— ChEMBL document CHEMBL5512619, “Anticancer mechanism of coumarin-based derivatives” (Eur J Med Chem, 2024)
